Structures can show the parent of a compound that is named as a salt.
Experiments:
[1] = system: collagen-induced aggregation of rabbit blood thrombocyte; assay: Collagen-induced platelet aggregation inhibition, rabbit platelet rich plasma; type: cell-based
Method: The platelet aggregation inhibitory action of NKH-477 was examined on collagen-induced aggregation and ADP-induced aggregation of rabbit blood thrombocyte. The male Japanese white rabbits (body weight: 2.4-2.8 kg, procured from Tokyo Experimental Animals Co., Ltd.) were divided into groups of 5. The rabbits were etherized and blood was collected from the carotid artery of each rabbit. A 3.8% sodium citrate solution (final concentration: 0.38%) was added to a portion of blood collected from each group of rabbits to obtain platelet rich plasma (PRP). The remaining portion of blood was centrifuged at 3,000 r.p.m. for 15 minutes to obtain platelet poor plasma (PPP). First, permeability of PRP and PPP was determined by using an aggregometer (RMA-31 mfd. by Rika Denki Kogyo K. K.) and set at 0% and 100%, respectively. Separately from the above operation, 250 μl of PRP was placed in a cuvette and after preliminary heating at 37° C. for 2 minutes, 20 μl of specimen was added and incubated under stirring for 2 minutes. Then 10 μl of ADP (Sigma, final conc.: 3×10^-6 M) or collagen (Hormon-Chemie, final conc.: 10 μg/ml) was added and the transmission rate was measured. The maximum transmission rate observed in this operation was termed as the maximum aggregation rate. Recording in this operation was conducted on an ink-written recorder (B-381L mfd. by Rika Denki Kogyo K. K.). NKH-477 was dissolved in a physiological saline to make concentrations of 10^-8 to 10^-5 M. Forskolin dissolved in ethanol was used as control.

[2] = system: canine coronary artery; assay: Spasmolytic effect on KCl-induced contraction, canine coronary artery ring; settings: for Inhibition rate, Coronary artery: 30 mM KCl, papaverine 10^-4 M = 100%, mean ± SE, n = 6
Method: (§1) The canine coronary and basilar arteries were extirpated under anesthesia with pentobarbital to prepare the 3 mm wide ring preparation. Each preparation was suspended in a 10-ml organ bath filled with a Krebs-Henseleit solution by applying a static tension of 1.5 g (for the coronary artery) and 1.0 g (for the basilar artery). The nutrient solution was maintained at 37° C. and aerated with a 95% 02 /5% CO2 gas. The isometric mascular tension was measured with an FD pickup (TB-611T mfd. by Nihon Kohden K. K.) and recorded on a recorder (TI-104 mfd. by Tokai IRIKA K. K.).
(§2) After about 2 hours of equilibrium time, contraction was induced with 30 mM of KCl (for coronary artery) and 35 mM of KCl (for basilar artery), and after contraction was stabilized, NKH-477 was administered cumulatively. The spasmolytic effect was expressed as percentages of the inhibition, with the maximal inhibition obtained with papaverine hydrochloride (10^-4 M) being supposed to have shown 100% inhibition.

[3] = system: total peripheral vascular resistance; assay: Effect on peripheral vascular resistance in human; type: in vivo; settings: i.v. 0.4 μg/kg/min, 40 minutes from start; four healthy adults; saline 1.7%
Method: (3) Effect on peripheral vascular resistance in human was examined.
A freeze-dried preparation comprising NKH-477 was dissolved in a physiological saline and continuously administered intravenously to four healthy adults at a rate of 0.4 μg/kg/min for one hour.
The rate of reduction of total peripheral vascular resistance after 40 minutes from the start of administration was determined for each subject from mean blood pressure and cardiac output calculated from Ultrasonic cardiography (UCG).

[4] = system: total peripheral vascular resistance; assay: Effect on peripheral vascular resistance in anesthetized dogs; type: in vivo, dog; settings: for Change in total peripheral vascular resistance: mean ± SE
Method: (2) Effect on peripheral vascular resistance in an anesthetized dogs was examined. Blood pressure was measured with a pressure transducer (CP-01 mfd. by Century Technology Co.) connected to a polyethylene tube inserted into a right femoral artery of a dog anesthetized with pentobarbital, and the cardiac output was measured according to a thermodilution method by using a dilution type cardiac output counter (MLC-4200 mfd. by Nihon Kohden K. K.) and a 7F thermodilution catheter (TC-704 mfd. by Nihon Kohden K. K.) inserted into the pulmonary artery through the right femoral vein. The total peripheral vascular resistance was determined by dividing the mean blood pressure by the cardiac output. NKH-477 was dissolved in a physiological saline and infused into a right cephalic vein at rates of 0.15, 0.3 and 0.6 μg/kg/min (flow rate: 0.2 ml/min) for 2 hours by using a continuous injection pump (Model 975C mfd. by Harvard Corp.). For the control, physiological saline was similarly infused at a rate of 0.2 ml/min.

[5] = system: collagen-induced aggregation; assay: Collagen-induced aggregation after intravenous administration to healthy adults; type: in vivo, healthy adults (human); settings: i.v. 0.8 μg/kg/min for one hour, mean of four subjects
Method: A freeze-dried preparation comprising NKH-477 was dissolved in a physiological saline and administered intravenously to four healthy adults at a rate of 0.8 μg/kg/min for one hour. The degrees of ADP-induced aggregation, epinephrine-induced aggregation and collagen-induced aggregation upon end of administration were measured and compared with those before administration (each figure is the average of measurements on the four subjects).

[6] = system: canine basilar artery; assay: Spasmolytic effect on KCl-induced contraction, canine basilar artery ring; settings: for Inhibition rate, Basilar artery: 35 mM KCl, papaverine 10^-4 M = 100%, mean ± SE, n = 3
Method: as §1, §2

For C=C[C@@]1(C)CC(=O)[C@]2(O)[C@@]3(C)[C@@H](O)CCC(C)(C)[C@@H]3[C@H](OC(=O)CCN(C)C)[C@H](OC(C)=O)[C@@]2(C)O1 [NKH-477, 6-(3-dimethylaminopropionyl)forskolin hydrochloride], the IC50 ([1]; Oryctolagus cuniculus, Platelet, rabbit PRP, collagen 10 μg/ml, mean, n = 5, read-out: Platelet aggregation inhibitory action (IC50), Collagen-induced aggregation) was 302 nM, the “platelet aggregation inhibitory action relative to forskolin” value ([1]; from Table 1-1 (collagen- and ADP-induced), vs forskolin) was “over 10 times” and the IC50 ([2]; Canis lupus familiaris, KCl-induced contraction, n=6) was 67.3 nM. For the same compound, the “inhibitory action against KCl-induced contraction in the coronary artery” value ([2]; Table 3, in words) was “concentration-dependent inhibitory action”, the “Inhibition rate, Coronary artery” value ([2]; line 1 of 5, printed 10^-9 M) was 6.1 ± 1.6% and the “Inhibition rate, Coronary artery” value ([2]; line 2 of 5, printed 10^-9 M) was 23.3 ± 3.2%. For the same compound, the “Inhibition rate, Coronary artery” value ([2]; line 3 of 5, printed 10^-9 M) was 58.8 ± 3.9%, the “Inhibition rate, Coronary artery” value ([2]; line 4 of 5, printed 10^-9 M) was 86.7 ± 1.5% and the “Inhibition rate, Coronary artery” value ([2]; line 5 of 5, printed 10^-9 M) was 94.5 ± 1.3%. For the same compound, the “average reduction rate of total peripheral vascular resistance” value [3] was 19.7%, the “Change in total peripheral vascular resistance” value (shortened to “Change”) ([4]; 0.15 μg/kg/min, 10 min from start of infusion, control 2.1 ± 1.5) was -2.7 ± 2.4% and the “Change” value ([4]; 0.15 μg/kg/min, 30 min after cessation of infusion, control 31.4 ± 13.9) was 7.4 ± 7.4%. For the same compound, the “Change” value ([4]; 0.15 μg/kg/min, 30 min from start of infusion, control 4.0 ± 2.3) was -6.2 ± 3.7%, the “Change” value ([4]; 0.15 μg/kg/min, 60 min after cessation of infusion, control 29.1 ± 9.7) was 15.7 ± 10.4% and the “Change” value ([4]; 0.15 μg/kg/min, 60 min from start of infusion, control 13.8 ± 3.4) was -9.1 ± 5.7%. The “Change” value ([4]; 0.15 μg/kg/min, 120 min after cessation of infusion, control 26.8 ± 12.5) was 12.8 ± 7.2%, the “Change” value ([4]; 0.15 μg/kg/min, 120 min from start of infusion, control 20.5 ± 9.2) was -5.7 ± 6.6% and the “Change” value ([4]; 0.3 μg/kg/min, 10 min from start of infusion, control 2.1 ± 1.5) was -3.7 ± 2.9%. For the same compound, the “Change” value ([4]; 0.3 μg/kg/min, 30 min after cessation of infusion, control 31.4 ± 13.9) was 6.7 ± 7.0%, the “Change” value ([4]; 0.3 μg/kg/min, 30 min from start of infusion, control 4.0 ± 2.3) was -10.4 ± 3.1% and the “Change” value ([4]; 0.3 μg/kg/min, 60 min after cessation of infusion, control 29.1 ± 9.7) was 17.1 ± 6.0%. For the same compound, the “Change” value ([4]; 0.3 μg/kg/min, 60 min from start of infusion, control 13.8 ± 3.4) was -10.2 ± 4.1%, the “Change” value ([4]; 0.3 μg/kg/min, 120 min after cessation of infusion, control 26.8 ± 12.5) was 17.2 ± 9.2% and the “Change” value ([4]; 0.3 μg/kg/min, 120 min from start of infusion, control 20.5 ± 9.2) was -11.5 ± 4.7%. The “Change” value ([4]; 0.6 μg/kg/min, 10 min from start of infusion, control 2.1 ± 1.5) was -18.3 ± 8.6%, the “Change” value ([4]; 0.6 μg/kg/min, 30 min after cessation of infusion, control 31.4 ± 13.9) was -13.4 ± 7.6% and the “Change” value ([4]; 0.6 μg/kg/min, 30 min from start of infusion, control 4.0 ± 2.3) was -28.1 ± 5.9%. For the same compound, the “Change” value ([4]; 0.6 μg/kg/min, 60 min after cessation of infusion, control 29.1 ± 9.7) was -4.1 ± 9.1%, the “Change” value ([4]; 0.6 μg/kg/min, 60 min from start of infusion, control 13.8 ± 3.4) was -29.0 ± 6.4% and the “Change” value ([4]; 0.6 μg/kg/min, 120 min after cessation of infusion, control 26.8 ± 12.5) was 11.8 ± 12.9%. For the same compound, the “Change” value ([4]; 0.6 μg/kg/min, 120 min from start of infusion, control 20.5 ± 9.2) was -28.0 ± 5.4%, the “recovery of total peripheral vascular resistance” value ([4]; after cessation of the infusion) was “substantially restored in 2 hours after cessation of the infusion” and the “total peripheral vascular resistance, course in words” value ([4]; i.v. infusion 0.15-0.6 μg/kg/min for 2 hours) was “decreased gradually after the start of infusion”. For the same compound, the “Collagen-induced aggregation upon end of administration” value ([5]; before administration 70.3%) was 45.8%, the “Inhibition rate, Collagen-induced aggregation” value [5] was 38.7% and the IC50 ([6]; Canis lupus familiaris, KCl-induced contraction, n=3) was 102 nM. For the same compound, the “inhibitory action against KCl-induced contraction in the basilar artery” value ([6]; Table 3, in words) was “concentration-dependent inhibitory action”, the “Inhibition rate, Basilar artery” value ([6]; line 1 of 5) was 3.8 ± 2.0% and the “Inhibition rate, Basilar artery” value ([6]; line 2 of 5) was 22.1 ± 3.3%. For the same compound, the “Inhibition rate, Basilar artery” value ([6]; line 3 of 5) was 52.0 ± 5.3%, the “Inhibition rate, Basilar artery” value ([6]; line 4 of 5) was 78.3 ± 1.2% and the “Inhibition rate, Basilar artery” value ([6]; line 5 of 5) was 89.2 ± 0.6%.

Reference: patent US5789439A, “Pharmaceutical use of forskolin derivatives” (Nippon Kayaku Kabushiki Kaisha, priority 1990, dated 1998)
